# Assay results: patent US9266834B2, “1, 4-disubstituted 3-cyano-pyridone derivatives and their use as positive allosteric modulators of MGLUR2-receptors” (JANSSEN PHARMACEUTICALS, INC., priority 2006, dated 2016)
# Target: T1, human mGluR2 receptor (Homo sapiens, UniProt Q14416)
# T1 construct: expressed in transfected cells; host or cells: CHO cells (membrane preparation)
# Test: [35S]GTPγS binding assay (GTPγS-PAM): positive allosteric modulation in presence of glutamate at EC25, membranes from transfected CHO cells
# Type: biochemical
# Details: in presence of mGluR2 agonist glutamate at predetermined EC25 concentration, averages of duplicate values of 11-concentration response curves
# Source text: The compounds provided in the present invention are positive allosteric modulators of mGluR2. These compounds appear to potentiate glutamate responses by binding to an allosteric site other than the glutamate binding site. The response of mGluR2 to a concentration of glutamate is increased when compounds of Formula (I) are present. Compounds of Formula (I) are expected to have their effect substantially at mGluR2 by virtue of their ability to enhance the function of the receptor. The behaviour of positive allosteric modulators tested at mGluR2 using the [^35S]GTPγS binding assay method described below and which is suitable for the identification of such compounds, and more particularly the compounds according to Formula (I), are shown in Table 4.
# [^35S]GTPγS Binding Assay
# The [^35S]GTPγS binding is a functional membrane-based assay used to study G-protein coupled receptor (GPCR) function whereby incorporation of a non-hydrolysable form of GTP, [^35S]GTPγS (guanosine 5′-triphosphate, labelled with […] ^35S), is measured. The G-protein o subunit catalyzes the exchange of guanosine 5′-diphosphate (GDP) by guanosine triphosphate (GTP) and on activation of the GPCR by an agonist, [^35S]GTPγS, becomes incorporated and cannot be cleaved to continue the exchange cycle (Harper (1998) Current Protocols in Pharmacology 2.6.1-10, John Wiley & Sons, Inc.). […] Here we describe the use of the [^35S]GTPγS binding assay using membranes from cells transfected with the human mGluR2 receptor and adapted from Schaffhauser et al ((2003) Molecular Pharmacology 4:798-810) for the detection of the positive allosteric modulation (PAM) properties of the compounds of this invention.
# CHO-cells were cultured to pre-confluence and stimulated with 5 mM butyrate for 24 hours, prior to washing in PBS, and then collection by scraping in homogenisation buffer (50 mM Tris-HCl buffer, pH 7.4, 4° C.). Cell lysates were homogenized briefly (15 s) using an ultra-turrax homogenizer. The homogenate was centrifuged at 23 500×g for 10 minutes and the supernatant discarded. The pellet was resuspended in 5 mM Tris-HCl, pH 7.4 and centrifuged again (30 000×g, 20 min, 4° C.). The final pellet was resuspended in 50 mM HEPES, pH 7.4 and stored at −80° C. in appropriate aliquots before use. Protein concentration was determined by the Bradford method (Bio-Rad, USA) with bovine serum albumin as standard.
# Measurement of mGluR2 positive allosteric modulators in membranes containing human mGluR2 was performed using frozen membranes that were thawed and briefly homogenised prior to pre-incubation in 96-well microplates (15 μg/assay well, 30 minutes, 30° C.) in assay buffer (50 mM HEPES pH 7.4, 100 mM NaCl, 3 mM MgCl2, 50 μM GDP, 10 μg/ml saponin,) with increasing concentrations of positive allosteric modulator (from 0.3 nM to 50 μM) and either a minimal pre-determined concentration of glutamate (PAM assay), or no added glutamate. For the PAM assay, membranes were pre-incubated with glutamate at EC25 concentration, i.e. a concentration that gives 25% of the maximal response glutamate, and is in accordance to published data (Pin et al. (1999) Eur. J. Pharmacol. 375:277-294). After addition of [^35S]GTPγS (0.1 nM, f.c.) to achieve a total reaction volume of 200 μl, microplates were shaken briefly and further incubated to allow [^35S]GTPγS incorporation on activation (30 minutes, 30° C.). The reaction was stopped by rapid vacuum filtration over glass-fibre filter plates (Unifilter 96-well GF/B filter plates, Perkin-Elmer, Downers Grove, USA) microplate using a 96-well plate cell harvester (Filtermate, Perkin-Elmer, USA), and then by washing three times with 300 μl of ice-cold wash buffer (Na2PO4.2H2O 10 mM, NaH2PO4.H2O 10 mM, pH=7.4). Filters were then air-dried, and 40 μl of liquid scintillation cocktail (Microscint-O) was added to each well, and membrane-bound [^35S]GTPγS was measured in a 96-well scintillation plate reader (Top-Count, Perkin-Elmer, USA). […]
# T1 sequence (Q14416 19-872): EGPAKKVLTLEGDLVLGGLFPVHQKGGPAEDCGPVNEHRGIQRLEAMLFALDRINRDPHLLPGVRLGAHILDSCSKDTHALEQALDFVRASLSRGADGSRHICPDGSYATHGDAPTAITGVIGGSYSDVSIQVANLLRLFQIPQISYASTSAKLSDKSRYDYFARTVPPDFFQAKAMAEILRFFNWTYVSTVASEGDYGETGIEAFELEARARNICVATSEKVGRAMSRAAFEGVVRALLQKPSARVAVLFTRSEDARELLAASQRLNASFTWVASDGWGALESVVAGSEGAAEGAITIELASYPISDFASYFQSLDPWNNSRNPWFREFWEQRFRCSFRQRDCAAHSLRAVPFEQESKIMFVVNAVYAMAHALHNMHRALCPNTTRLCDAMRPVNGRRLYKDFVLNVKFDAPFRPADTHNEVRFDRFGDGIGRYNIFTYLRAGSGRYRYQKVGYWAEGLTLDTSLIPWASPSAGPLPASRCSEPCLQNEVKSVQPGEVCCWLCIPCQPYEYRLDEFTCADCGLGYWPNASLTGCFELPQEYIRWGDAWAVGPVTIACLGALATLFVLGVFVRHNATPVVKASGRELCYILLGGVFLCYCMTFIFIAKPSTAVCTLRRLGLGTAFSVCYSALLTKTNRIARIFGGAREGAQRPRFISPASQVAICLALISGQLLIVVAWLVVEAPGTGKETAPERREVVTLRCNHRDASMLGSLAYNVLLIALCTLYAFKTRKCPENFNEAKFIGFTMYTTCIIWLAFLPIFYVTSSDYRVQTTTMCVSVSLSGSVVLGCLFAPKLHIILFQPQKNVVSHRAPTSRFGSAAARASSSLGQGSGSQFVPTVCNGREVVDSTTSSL
row,GTPgS - hR2 PAM pEC50,Compound
1,6.2,CCCCn1ccc(N2CCN(c3nc(C)cc(C)n3)CC2)c(C#N)c1=O [2-005]

# Same assay, conditions: in presence of mGluR2 agonist glutamate at predetermined EC25 concentration, averages of duplicate values of 11-concentration response curves, read-out: GTPgS - hR2 PAM pEC50 (converted)
row,Compound,EC50 [µM]
1,CC(=O)CCNc1ccc(-c2ccn(CCC(C)C)c(=O)c2C#N)cc1 [1-180],0.316
2,CC(=O)NCCNc1ccc(-c2ccn(CCC(C)C)c(=O)c2C#N)cc1 [1-182],3.16
3,COc1cc(-c2ccn(CCC(C)C)c(=O)c2C#N)ccc1NC(C)C [1-183],0.251
4,COc1cc(-c2ccn(CCC(C)C)c(=O)c2C#N)ccc1CNC(C)=O [1-184],3.98
5,COCCN(C)c1ccc(-c2ccn(CCC(C)C)c(=O)c2C#N)cc1OC [1-185],1
6,CC(C)CCn1ccc(-c2ccc(NC3CC3)cc2)c(C#N)c1=O [1-187],0.126
7,CC(C)CCn1ccc(-c2ccc(NC3CCCCC3)cc2)c(C#N)c1=O [1-188],0.0501
8,CC(C)CCn1ccc(-c2ccc(Nc3ccccc3)cc2)c(C#N)c1=O [1-193],5.01
9,CC(C)CCn1ccc(-c2ccc(NCc3ccccc3)cc2)c(C#N)c1=O [1-194],0.0631
10,CC(C)CCn1ccc(-c2ccc(N(C)c3ccccc3)cc2)c(C#N)c1=O [1-195],0.126
11,CC(C)CCn1ccc(-c2ccc(N(C)Cc3ccccc3)cc2)c(C#N)c1=O [1-196],0.0398
12,CC(C)CCn1ccc(-c2ccc(CN(C)Cc3ccc(F)cc3)cc2)c(C#N)c1=O [1-197],0.251
13,CC(C)CCn1ccc(-c2ccc(CNCc3ccccc3F)cc2)c(C#N)c1=O [1-198],1.26
14,CC(=O)Nc1ccc(-c2ccn(CCC(C)C)c(=O)c2C#N)cc1F [1-201],3.98
15,CC(C)CCn1ccc(-c2ccc(NCc3ccc(OC(F)(F)F)cc3)cc2)c(C#N)c1=O [1-205],0.251
16,CC(C)CCn1ccc(-c2ccc(Nc3ccncc3)cc2)c(C#N)c1=O [1-208],1.26
17,CC(C)CCn1ccc(-c2ccc(NCc3cccnc3)cc2)c(C#N)c1=O [1-209],1.26
18,Cc1ccc(-c2ccn(CCC(C)C)c(=O)c2C#N)cc1[N+](=O)[O-] [1-214],0.794
19,CC(C)CCn1ccc(-c2ccc(NC3CCS(=O)(=O)CC3)cc2)c(C#N)c1=O [1-217],2.51
20,CC(C)CCn1ccc(-c2ccc(N3CCCC3)cc2)c(C#N)c1=O [1-218],0.2

row,Compound,EC50 [µM]
1,CC(C)CCn1ccc(-c2ccc(N3CCCCC3)cc2)c(C#N)c1=O [1-219],0.2
2,COC1CCN(c2ccc(-c3ccn(CCC(C)C)c(=O)c3C#N)cc2)CC1 [1-221],0.398
3,CC(=O)N1CCN(c2ccc(-c3ccn(CCC(C)C)c(=O)c3C#N)cc2)CC1 [1-231],1.58
4,CC(C)CCn1ccc(-c2ccc(N3CCN(c4ccccc4)CC3)cc2)c(C#N)c1=O [1-233],0.631
5,CC(C)CCn1ccc(-c2ccc(N3CCN(c4ccncc4)CC3)cc2)c(C#N)c1=O [1-234],1.26
6,CC(C)CCn1ccc(-c2ccc(-n3ccnn3)cc2)c(C#N)c1=O [1-236],2
7,CC(C)CCn1ccc(-c2ccc(N3Cc4ccccc4C3)cc2)c(C#N)c1=O [1-237],0.398
8,COC(=O)c1cccc(-c2ccn(CCC(C)C)c(=O)c2C#N)c1 [1-242],3.98
9,CC(C)CCn1ccc(-c2ccc(C3(C(N)=O)CC3)cc2)c(C#N)c1=O [1-246],3.98
10,CC(C)CCn1ccc(-c2ccc(Cn3ccnc3)cc2)c(C#N)c1=O [1-248],3.16
11,CC(C)CCn1ccc(-c2ccc(N3CCCC3=O)cc2)c(C#N)c1=O [1-249],3.98
12,CC(C)CCn1ccc(-c2ccc(-c3cnco3)cc2)c(C#N)c1=O [1-250],1.58
13,CC(C)CCn1ccc(-c2ccc3c(c2)OCCO3)c(C#N)c1=O [1-253],0.501
14,CC(C)CCn1ccc(-c2ccc(CSc3ccncc3)cc2)c(C#N)c1=O [1-258],0.316
15,CC(C)CCn1ccc(-c2ccc3sccc3c2)c(C#N)c1=O [1-259],0.2
16,CC(C)CCn1ccc(CCc2ccccc2)c(C#N)c1=O [1-260],1.26
17,CC(C)CCn1ccc(C=Cc2ccccc2)c(C#N)c1=O [1-261],0.2
18,CC(C)CCn1ccc(CCc2cccc(N(C)C)c2)c(C#N)c1=O [1-262],1.58
19,CC(C)CCn1ccc(CCc2ccc(N(C)C)cc2)c(C#N)c1=O [1-263],1

# The remaining lines, values ahead:
row,EC50 [µM],Compound
1,1.58,COc1cccc(CCc2ccn(CCC(C)C)c(=O)c2C#N)c1 [1-264]
2,0.316,COc1ccc(C=Cc2ccn(CCC(C)C)c(=O)c2C#N)cc1 [1-266]
3,0.0794,"CC(C)CCn1ccc(C#Cc2ccccc2)c(C#N)c1=O [1-267, 3-cyano-1-(3-methylbutyl)-4-(phenylethynyl)pyridine-2(1H)-one]"
4,0.0501,COc1ccc(C#Cc2ccn(CCC(C)C)c(=O)c2C#N)cc1 [1-268]
5,0.158,CC(C)CCn1ccc(C#Cc2cccc(N(C)C)c2)c(C#N)c1=O [1-269]
6,0.158,N#Cc1c(OCc2ccc(CN3CCOCC3)cc2)ccn(Cc2ccc(OC(F)(F)F)cc2)c1=O [1-271]
7,0.126,N#Cc1c(OCc2ccccc2)ccn(Cc2ccc(OC(F)(F)F)cc2)c1=O [1-272]
8,0.631,CCCCn1ccc(Oc2ccc(Br)cc2)c(C#N)c1=O [1-273]
9,1.58,CC(C)CCn1ccc(Oc2ccccc2)c(C#N)c1=O [1-274]
10,2.51,CC(C)CCn1ccc(OCCc2ccccc2)c(C#N)c1=O [1-276]
11,0.251,CC(C)CCn1ccc(OCc2ccc(C(F)(F)F)cc2)c(C#N)c1=O [1-277]
12,0.316,CC(C)CCn1ccc(OCc2ccc(Br)cc2)c(C#N)c1=O [1-278]
13,1.58,CC(C)CCn1ccc(OCCOc2ccccc2)c(C#N)c1=O [1-280]
14,0.794,COc1ccc(COc2ccn(CCC(C)C)c(=O)c2C#N)cc1F [1-283]
15,3.98,CC(C)CCn1ccc(OCc2ccc(C#N)cc2)c(C#N)c1=O [1-286]
16,0.0631,CC(C)CCn1ccc(OCc2ccc(SC(F)(F)F)cc2)c(C#N)c1=O [1-287]
17,0.0794,CC(C)CCn1ccc(OCc2ccc(OCc3ccccc3)cc2)c(C#N)c1=O [1-289]
18,0.501,CC(C)CCn1ccc(Oc2ccc(N3CCCC3)cc2)c(C#N)c1=O [1-291]
19,3.98,N#Cc1c(Nc2ccc(Oc3ccncc3)cc2)ccn(CC2CC2)c1=O [1-295]
20,0.2,CCCCn1ccc(N[C@H]2CC[C@H](c3ccccc3)CC2)c(C#N)c1=O [1-297]
21,3.98,CC(C)CCn1ccc(Nc2ccccc2)c(C#N)c1=O [1-298]
22,2,CC(C)CCn1ccc(Nc2ccc(N3CCOCC3)cc2)c(C#N)c1=O [1-300]
23,0.2,CC(C)CCn1ccc(Nc2ccc(Oc3ccccc3)cc2)c(C#N)c1=O [1-301]
24,1.26,CC(C)CCn1ccc(Nc2ccc(Oc3ccncc3)cc2)c(C#N)c1=O [1-302]
25,3.16,CC(C)CCn1ccc(N(C)Cc2ccccc2)c(C#N)c1=O [1-303]
26,3.98,CCCCn1ccc(OCc2ccc(-c3cccc(C)n3)cc2)c(C#N)c1=O [1-306]
27,2,CCCCn1ccc(N2CCN(c3ccccn3)CC2)c(C#N)c1=O [2-004]
28,0.158,CCCCn1ccc(N2CCN(c3ncc(C4CC4)cn3)CC2)c(C#N)c1=O [2-006]
29,1,CCCCn1ccc(N2CCN(c3nccc(OC)n3)CC2)c(C#N)c1=O [2-007]
30,1.58,CCCCn1ccc(N2CCN(c3nccc(NCC)n3)CC2)c(C#N)c1=O [2-008]
